Patent US8198452B2, “Polymorphic forms and process” (Merck Patent Gesellschaft MIT Beschränkter Haftung, priority 2006, dated 2012)

Legend:
Assay type in all cases: physicochemical
[1] = stability of the basic, non-salt form
[2] = hygroscopicity of crystalline forms
[3] = thermodynamic stability of crystalline forms; conditions: versus form A2, A3 (b74 also the amorphous form, especially at room temperature)
[4] = chemical stability (thermal stability and light stability)
Text: The expression chemical stability includes, but is not limited to, thermal stability and light stability.

| stability in basic, i.e. non-salt, form [1] | hygroscopicity [2] | chemical stability (shelf-life, thermal stability and light stability) [4] | SMILES | hygroscopicity compared with other forms ([2]; versus form A2, A3 and the amorphous form, especially at room temperature) | thermodynamic stability compared with other forms [3] |
| --- | --- | --- | --- | --- | --- |
| especially stable | – | – | CN(C)CCNC(=O)NC[C@H]1CC[C@@H]2[C@H](O1)c1cc(C(F)(F)F)ccc1N[C@H]2c1ccccc1 [compound of formula II, 1-(2-Dimethylamino-ethyl)-3-((2R,4aS,5R,10bS)-5-phenyl-9-trifluoromethyl-3,4,4a,5,6,10b-hexahydro-2H-pyrano[3,2-c]quinolin-2-ylmethyl)-urea] | – | – |
| – | essentially non-hygroscopic | better chemical stability | CN(C)CCNC(=O)NC[C@H]1CC[C@@H]2[C@H](O1)c1cc(C(F)(F)F)ccc1N[C@H]2c1ccccc1 [Form A1, 1-(2-Dimethylamino-ethyl)-3-((2R,4aS,5R,10bS)-5-phenyl-9-trifluoromethyl-3,4,4a,5,6,10b-hexahydro-2H-pyrano[3,2-c]quinolin-2-ylmethyl)-urea] | less hygroscopic than form A2, A3 and the amorphous form | thermodynamically more stable than form A2 and A3 |
